Laboratory results taken from PubChem BioAssay (NCI).
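A five-concentration, 48-hour dose response in 96-well plates underlies each endpoint, interpolated linearly between surrounding concentrations. GI50 marks 50% less growth. TGI: total growth inhibition.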

Columns and labels:
Assay in all cases: DTP human tumour cell line panel, 48 h
HCT-15 colon = tested on: HCT-15 colon
UO-31 renal = tested on: UO-31 renal
SF-295 CNS = tested on: SF-295 CNS
K-562 leukemia = tested on: K-562 leukemia
SNB-75 CNS = tested on: SNB-75 CNS
UACC-257 melanoma = tested on: UACC-257 melanoma
OVCAR-8 ovarian = tested on: OVCAR-8 ovarian
SK-MEL-28 melanoma = tested on: SK-MEL-28 melanoma
RPMI-8226 leukemia = tested on: RPMI-8226 leukemia
MOLT-4 leukemia = tested on: MOLT-4 leukemia

Row | SMILES | GI50 (HCT-15 colon) [µM] | TGI (HCT-15 colon) [µM] | GI50 (UO-31 renal) [µM] | TGI (UO-31 renal) [µM] | GI50 (SF-295 CNS) [µM] | TGI (SF-295 CNS) [µM] | GI50 (K-562 leukemia) [µM] | TGI (K-562 leukemia) [µM] | GI50 (SNB-75 CNS) [µM] | TGI (SNB-75 CNS) [µM] | GI50 (UACC-257 melanoma) [µM] | TGI (UACC-257 melanoma) [µM] | GI50 (OVCAR-8 ovarian) [µM] | TGI (OVCAR-8 ovarian) [µM] | GI50 (SK-MEL-28 melanoma) [µM] | TGI (SK-MEL-28 melanoma) [µM] | GI50 (RPMI-8226 leukemia) [µM] | TGI (RPMI-8226 leukemia) [µM] | GI50 (MOLT-4 leukemia) [µM] | TGI (MOLT-4 leukemia) [µM]
1 | CNC(=O)c1c(NC(=O)c2cccc(C(F)(F)F)c2)sc2c1CCC(=O)C2 | 0.249 | 1.51 | 0.197 | 0.77 | 0.36 | 1.88 | 0.135 | > 100 | 0.575 | 5.27 | 1.9 | 7.3 | 0.324 | > 100 | 0.837 | > 100 | 0.198 | 0.781 | 0.356 | 4.63
2 | C=C1C(=O)O[C@H]2[C@H]1CC/C(CNS(=O)(=O)c1ccc3ccccc3c1)=C\CC[C@@]1(C)O[C@@H]21 | 1.27 | 2.77 | 1.34 | 2.78 | 7.49 | 20.9 | 0.691 | 4.46 | 10.5 | 23.6 | 1.9 | 4.54 | 3.36 | 12.6 | 1.57 | 3.57 | 1.46 | 4.5 | 1.56 | 4.71
3 | CCNc1c(C(=O)N(CC)CC)c(=O)[nH]c2ncccc12 |  | > 100 |  | > 100 |  | > 100 |  | > 100 |  | > 100 |  | > 100 |  | > 100 |  | > 100 |  | > 100 |  | > 100
4 | CS(=O)(=O)OCCN1CCN(C(=O)c2cccc3c(Nc4ccc(S(N)(=O)=O)cc4)c4ccccc4nc23)CC1 |  | > 60.6 |  | > 100 |  | > 100 |  | > 81.1 |  | > 100 |  | > 100 |  | > 100 |  | > 100 |  | > 66.1 |  | > 100
5 | O=C(O)CNS(=O)(=O)c1ccc(NC(=O)c2ccc(F)cc2)cc1 |  | > 100 |  | > 100 |  | > 100 |  | > 100 |  | > 100 |  | > 100 |  | > 100 |  | > 100 |  | > 100 |  | > 100
6 | O=C1CSC2=NCC3(NN12)c1ccccc1-c1ccccc13 |  | > 10 |  | > 10 |  | > 10 |  | > 10 |  | > 10 |  | > 10 |  | > 10 |  | > 10 |  | > 10 |  | > 10
7 | Cc1[nH]c(C(=O)Nc2ccc(C(=O)N3CCNCC3)cc2OC(C)C)c(Cl)c1Cl | 1.82 | 3.43 | 1.44 | 2.85 | 1.89 | 3.68 | 2.15 | 4.71 | 3.31 | 14.1 | 1.79 | 3.52 | 2.25 | 5.32 | 1.78 | 3.24 | 2.31 | 5.51 | 2.32 | 5.1
8 | O=S1(=O)N(Cc2ccccc2)[C@@H](Cc2ccccc2)C2O[C@H]2[C@H](Cc2ccccc2)N1Cc1ccccc1 (some centres undefined) | 3.92 | > 7.5 | > 7.5 | > 7.5 | 1.8 | > 7.5 | 3.34 | > 7.5 | > 7.5 | > 7.5 | 2.89 | > 7.5 | > 7.5 | > 7.5 | > 7.5 | > 7.5 | 4.92 | > 7.5 | 4.12 | > 7.5
9 | COc1ccc(C(O)c2cc3c(N)c(C(=O)Nc4cccc(Cl)c4C)sc3nc2C)cc1 (centres undefined) | 0.623 | 1.33 | 0.627 | 1.27 | 0.881 | 1.66 | 0.198 | 1.45 | 0.637 | 1.34 | 1 | 2.02 | 0.948 | 2.17 | 0.854 | 1.58 | 0.681 | 1.85 | 0.846 | 2.13
10 | O=C1O[C@H](C(Cl)(Cl)Cl)N2CCCC12 (some centres undefined) |  | > 100 |  | > 100 |  | > 100 |  | > 100 |  | > 100 |  | > 100 |  | > 100 |  | > 100 |  | > 100 |  | > 100
11 | C=C1C(=O)O[C@H]2[C@H]1CC/C(CNC(=O)/C=C/c1cccc(OC)c1)=C\CC[C@@]1(C)O[C@@H]21 | 1.05 | 2.54 | 1.29 | 2.61 | 5.54 | 19.3 | 1.31 | 18.6 | 1.82 | 8.09 | 1.45 | 2.98 | 2.19 | 8.07 | 1.74 | 4.23 | 1.31 | 4.97 | 2.12 | 7.36
12 | OCc1cccc(-c2ccc3ncc(-c4nc(NC5CC5)ncc4F)n3c2)c1 | 0.267 | 1.39 | 0.3 | 1 | 0.334 | 1.59 | 0.434 | > 100 | 0.199 | 0.453 | 0.372 | 1.79 | 0.301 | > 100 | 0.29 | 0.998 | 0.22 | 0.788 | 0.266 | 
13 | N#Cc1c2ccccc2c2n1-c1ccccc1OC(c1ccccc1)C2=O (centres undefined) | 3.12 | 12.5 | 3.19 | 12 | 3.42 | 34.4 | 3.19 | 13.9 | 2.23 | 11.9 | 3.82 | 17.6 | 3.26 | 15.7 | 8.67 | 27.5 | 2.75 | 9.07 | 4.47 | 19.6
14 | Cc1nc2cncc(C#Cc3cncc(C(=O)Nc4ccc(CN5CCN(C)CC5)c(C(F)(F)F)c4)c3)c2nc1C | 0.286 | 5.92 | 0.256 | 1.06 | 2.13 | 22.2 | 0.005 | 5.81 | 0.854 | 3.34 | 0.549 | 3.56 | 0.721 | 8.88 | 0.422 | 2.71 | 0.487 | 4.49 | 0.45 | 10.4
15 | CS(=O)(=O)N(CCC#N)c1ccc(/C=N/NC(=O)CC(=O)Nc2cccc(Cl)c2)cc1 |  | > 100 |  | > 100 |  | > 100 |  | > 100 |  | > 100 |  | > 100 |  | > 100 |  | > 100 |  | > 100 |  | > 100
16 | COc1cccc2c1C1(O)C2CCCC12OCCCO2 (centres undefined) |  | > 100 |  | > 100 |  | > 100 |  | > 100 |  | > 100 |  | > 100 |  | > 100 |  | > 100 |  | > 100 |  | > 100
